Molecular target: T1, Fatty-acid amide hydrolase 1 (Homo sapiens, UniProt O00519)
T1 sequence (O00519 whole entry): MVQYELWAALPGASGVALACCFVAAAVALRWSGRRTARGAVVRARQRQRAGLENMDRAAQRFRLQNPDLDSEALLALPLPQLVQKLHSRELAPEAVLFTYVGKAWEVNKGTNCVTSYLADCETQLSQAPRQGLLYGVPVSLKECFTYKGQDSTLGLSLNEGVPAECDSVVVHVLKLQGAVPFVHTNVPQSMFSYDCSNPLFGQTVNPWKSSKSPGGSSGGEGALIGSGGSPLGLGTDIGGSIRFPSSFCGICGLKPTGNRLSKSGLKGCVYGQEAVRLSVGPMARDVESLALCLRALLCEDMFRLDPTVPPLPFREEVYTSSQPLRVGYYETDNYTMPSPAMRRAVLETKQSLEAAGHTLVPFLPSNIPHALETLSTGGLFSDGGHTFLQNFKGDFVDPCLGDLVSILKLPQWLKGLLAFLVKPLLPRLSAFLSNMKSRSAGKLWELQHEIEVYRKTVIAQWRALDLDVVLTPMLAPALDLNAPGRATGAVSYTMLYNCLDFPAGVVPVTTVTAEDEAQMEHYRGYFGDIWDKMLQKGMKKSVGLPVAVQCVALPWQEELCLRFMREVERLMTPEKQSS
Test: Inhibition Assay: Human FAAH 1 activity was determined by measuring the liberation of the highly fluorescent 7-amino, 4-methyl Coumarin (AMC) generated during hydrolysis of the substrate arachidonoyl 7-amino, 4-methyl coumarin amide (AAMCA) by FAAH. Inhibition of human FAAH 1 activity was determined as a percentage reduction of the fluorescence determined in the absence of compound.The assay was carried out in black-walled, clear bottom, 384-well plates. 27.5 ul of human FAAH 1 protein (in FAAH assay buffer: 50 mM Hepes, 0.01% Triton X-100, 1 mM EDTA, 0.5 mg/ml BSA (fatty-acid-free), pH 8.2) was pre-incubated, at 10 nM, with increasing concentrations of compounds (2.5 ul in 100% DMSO) for 1 hour at room temperature. 2.5 ul of DMSO was added for total controls (100% FAAH activity) and 2.5 ul of URB-597, a known inhibitor of FAAH activity, (at a final, saturating, concentration of 10 uM) was used for non-specific controls (0 FAAH activity).

Question: With `COc1ccccc1-c1ccc(OC2CN(C(=O)Nc3cccnn3)C2)nc1` as the molecule, how does the IC50 read?
Answer: The IC50 was 12 nM.

Reference: ChEMBL document CHEMBL3638839, “Azetidine derivatives” (2015)
